Key:
SERCA1 [1] = biological target: T1, SERCA1 (Oryctolagus cuniculus, UniProt P04191); assay: SERCA1 ATPase activity; assay type: biochemical, rabbit
RyR1 = RyR1 (Oryctolagus cuniculus, UniProt P11716); assay: Lipid bilayer single channel recordings of purified RyR1; assay type: biochemical, rabbit; conditions: for increase in Po of RyR1 / Closed- maximally opened transitions (Hz) / Dwell time closed state / Dwell time open state / Po (+30 mV) / Close - maximally opened transitions (Hz): 3.0 μM cis Ca^2+
[2] = tested on: C2C12 skeletal muscle myotubes; assay: Live-cell Ca^2+ imaging; assay type: cell-based, Mouse
SERCA1 [3] = biological target: T1, SERCA1; assay: ATP-dependent ^45Ca^2+ accumulation by longitudinal SR vesicles; assay type: biochemical, rabbit; conditions: 0 – 31.2 μM, 20 min at 37°C
[4] = EFV daily dose of up to 600 mg/day, cited from earlier work
[5] = Drug dissolved in ethanol/water; assay type: physicochemical; conditions: room temperature (22 °C), HPLC
[6] = biological target: rabbit skeletal muscle ryanodine receptor Ca^2+ release channel (RyR1) (Oryctolagus cuniculus, UniProt P11716); assay: [^3H]ryanodine binding/displacement assay with SR membrane vesicles
[7] = 6 μM, antiretroviral-naïve C2C12 myotubes
[8] = 3 μM, antiretroviral-naïve C2C12 cells

Sequence of RyR1 (P11716 whole entry): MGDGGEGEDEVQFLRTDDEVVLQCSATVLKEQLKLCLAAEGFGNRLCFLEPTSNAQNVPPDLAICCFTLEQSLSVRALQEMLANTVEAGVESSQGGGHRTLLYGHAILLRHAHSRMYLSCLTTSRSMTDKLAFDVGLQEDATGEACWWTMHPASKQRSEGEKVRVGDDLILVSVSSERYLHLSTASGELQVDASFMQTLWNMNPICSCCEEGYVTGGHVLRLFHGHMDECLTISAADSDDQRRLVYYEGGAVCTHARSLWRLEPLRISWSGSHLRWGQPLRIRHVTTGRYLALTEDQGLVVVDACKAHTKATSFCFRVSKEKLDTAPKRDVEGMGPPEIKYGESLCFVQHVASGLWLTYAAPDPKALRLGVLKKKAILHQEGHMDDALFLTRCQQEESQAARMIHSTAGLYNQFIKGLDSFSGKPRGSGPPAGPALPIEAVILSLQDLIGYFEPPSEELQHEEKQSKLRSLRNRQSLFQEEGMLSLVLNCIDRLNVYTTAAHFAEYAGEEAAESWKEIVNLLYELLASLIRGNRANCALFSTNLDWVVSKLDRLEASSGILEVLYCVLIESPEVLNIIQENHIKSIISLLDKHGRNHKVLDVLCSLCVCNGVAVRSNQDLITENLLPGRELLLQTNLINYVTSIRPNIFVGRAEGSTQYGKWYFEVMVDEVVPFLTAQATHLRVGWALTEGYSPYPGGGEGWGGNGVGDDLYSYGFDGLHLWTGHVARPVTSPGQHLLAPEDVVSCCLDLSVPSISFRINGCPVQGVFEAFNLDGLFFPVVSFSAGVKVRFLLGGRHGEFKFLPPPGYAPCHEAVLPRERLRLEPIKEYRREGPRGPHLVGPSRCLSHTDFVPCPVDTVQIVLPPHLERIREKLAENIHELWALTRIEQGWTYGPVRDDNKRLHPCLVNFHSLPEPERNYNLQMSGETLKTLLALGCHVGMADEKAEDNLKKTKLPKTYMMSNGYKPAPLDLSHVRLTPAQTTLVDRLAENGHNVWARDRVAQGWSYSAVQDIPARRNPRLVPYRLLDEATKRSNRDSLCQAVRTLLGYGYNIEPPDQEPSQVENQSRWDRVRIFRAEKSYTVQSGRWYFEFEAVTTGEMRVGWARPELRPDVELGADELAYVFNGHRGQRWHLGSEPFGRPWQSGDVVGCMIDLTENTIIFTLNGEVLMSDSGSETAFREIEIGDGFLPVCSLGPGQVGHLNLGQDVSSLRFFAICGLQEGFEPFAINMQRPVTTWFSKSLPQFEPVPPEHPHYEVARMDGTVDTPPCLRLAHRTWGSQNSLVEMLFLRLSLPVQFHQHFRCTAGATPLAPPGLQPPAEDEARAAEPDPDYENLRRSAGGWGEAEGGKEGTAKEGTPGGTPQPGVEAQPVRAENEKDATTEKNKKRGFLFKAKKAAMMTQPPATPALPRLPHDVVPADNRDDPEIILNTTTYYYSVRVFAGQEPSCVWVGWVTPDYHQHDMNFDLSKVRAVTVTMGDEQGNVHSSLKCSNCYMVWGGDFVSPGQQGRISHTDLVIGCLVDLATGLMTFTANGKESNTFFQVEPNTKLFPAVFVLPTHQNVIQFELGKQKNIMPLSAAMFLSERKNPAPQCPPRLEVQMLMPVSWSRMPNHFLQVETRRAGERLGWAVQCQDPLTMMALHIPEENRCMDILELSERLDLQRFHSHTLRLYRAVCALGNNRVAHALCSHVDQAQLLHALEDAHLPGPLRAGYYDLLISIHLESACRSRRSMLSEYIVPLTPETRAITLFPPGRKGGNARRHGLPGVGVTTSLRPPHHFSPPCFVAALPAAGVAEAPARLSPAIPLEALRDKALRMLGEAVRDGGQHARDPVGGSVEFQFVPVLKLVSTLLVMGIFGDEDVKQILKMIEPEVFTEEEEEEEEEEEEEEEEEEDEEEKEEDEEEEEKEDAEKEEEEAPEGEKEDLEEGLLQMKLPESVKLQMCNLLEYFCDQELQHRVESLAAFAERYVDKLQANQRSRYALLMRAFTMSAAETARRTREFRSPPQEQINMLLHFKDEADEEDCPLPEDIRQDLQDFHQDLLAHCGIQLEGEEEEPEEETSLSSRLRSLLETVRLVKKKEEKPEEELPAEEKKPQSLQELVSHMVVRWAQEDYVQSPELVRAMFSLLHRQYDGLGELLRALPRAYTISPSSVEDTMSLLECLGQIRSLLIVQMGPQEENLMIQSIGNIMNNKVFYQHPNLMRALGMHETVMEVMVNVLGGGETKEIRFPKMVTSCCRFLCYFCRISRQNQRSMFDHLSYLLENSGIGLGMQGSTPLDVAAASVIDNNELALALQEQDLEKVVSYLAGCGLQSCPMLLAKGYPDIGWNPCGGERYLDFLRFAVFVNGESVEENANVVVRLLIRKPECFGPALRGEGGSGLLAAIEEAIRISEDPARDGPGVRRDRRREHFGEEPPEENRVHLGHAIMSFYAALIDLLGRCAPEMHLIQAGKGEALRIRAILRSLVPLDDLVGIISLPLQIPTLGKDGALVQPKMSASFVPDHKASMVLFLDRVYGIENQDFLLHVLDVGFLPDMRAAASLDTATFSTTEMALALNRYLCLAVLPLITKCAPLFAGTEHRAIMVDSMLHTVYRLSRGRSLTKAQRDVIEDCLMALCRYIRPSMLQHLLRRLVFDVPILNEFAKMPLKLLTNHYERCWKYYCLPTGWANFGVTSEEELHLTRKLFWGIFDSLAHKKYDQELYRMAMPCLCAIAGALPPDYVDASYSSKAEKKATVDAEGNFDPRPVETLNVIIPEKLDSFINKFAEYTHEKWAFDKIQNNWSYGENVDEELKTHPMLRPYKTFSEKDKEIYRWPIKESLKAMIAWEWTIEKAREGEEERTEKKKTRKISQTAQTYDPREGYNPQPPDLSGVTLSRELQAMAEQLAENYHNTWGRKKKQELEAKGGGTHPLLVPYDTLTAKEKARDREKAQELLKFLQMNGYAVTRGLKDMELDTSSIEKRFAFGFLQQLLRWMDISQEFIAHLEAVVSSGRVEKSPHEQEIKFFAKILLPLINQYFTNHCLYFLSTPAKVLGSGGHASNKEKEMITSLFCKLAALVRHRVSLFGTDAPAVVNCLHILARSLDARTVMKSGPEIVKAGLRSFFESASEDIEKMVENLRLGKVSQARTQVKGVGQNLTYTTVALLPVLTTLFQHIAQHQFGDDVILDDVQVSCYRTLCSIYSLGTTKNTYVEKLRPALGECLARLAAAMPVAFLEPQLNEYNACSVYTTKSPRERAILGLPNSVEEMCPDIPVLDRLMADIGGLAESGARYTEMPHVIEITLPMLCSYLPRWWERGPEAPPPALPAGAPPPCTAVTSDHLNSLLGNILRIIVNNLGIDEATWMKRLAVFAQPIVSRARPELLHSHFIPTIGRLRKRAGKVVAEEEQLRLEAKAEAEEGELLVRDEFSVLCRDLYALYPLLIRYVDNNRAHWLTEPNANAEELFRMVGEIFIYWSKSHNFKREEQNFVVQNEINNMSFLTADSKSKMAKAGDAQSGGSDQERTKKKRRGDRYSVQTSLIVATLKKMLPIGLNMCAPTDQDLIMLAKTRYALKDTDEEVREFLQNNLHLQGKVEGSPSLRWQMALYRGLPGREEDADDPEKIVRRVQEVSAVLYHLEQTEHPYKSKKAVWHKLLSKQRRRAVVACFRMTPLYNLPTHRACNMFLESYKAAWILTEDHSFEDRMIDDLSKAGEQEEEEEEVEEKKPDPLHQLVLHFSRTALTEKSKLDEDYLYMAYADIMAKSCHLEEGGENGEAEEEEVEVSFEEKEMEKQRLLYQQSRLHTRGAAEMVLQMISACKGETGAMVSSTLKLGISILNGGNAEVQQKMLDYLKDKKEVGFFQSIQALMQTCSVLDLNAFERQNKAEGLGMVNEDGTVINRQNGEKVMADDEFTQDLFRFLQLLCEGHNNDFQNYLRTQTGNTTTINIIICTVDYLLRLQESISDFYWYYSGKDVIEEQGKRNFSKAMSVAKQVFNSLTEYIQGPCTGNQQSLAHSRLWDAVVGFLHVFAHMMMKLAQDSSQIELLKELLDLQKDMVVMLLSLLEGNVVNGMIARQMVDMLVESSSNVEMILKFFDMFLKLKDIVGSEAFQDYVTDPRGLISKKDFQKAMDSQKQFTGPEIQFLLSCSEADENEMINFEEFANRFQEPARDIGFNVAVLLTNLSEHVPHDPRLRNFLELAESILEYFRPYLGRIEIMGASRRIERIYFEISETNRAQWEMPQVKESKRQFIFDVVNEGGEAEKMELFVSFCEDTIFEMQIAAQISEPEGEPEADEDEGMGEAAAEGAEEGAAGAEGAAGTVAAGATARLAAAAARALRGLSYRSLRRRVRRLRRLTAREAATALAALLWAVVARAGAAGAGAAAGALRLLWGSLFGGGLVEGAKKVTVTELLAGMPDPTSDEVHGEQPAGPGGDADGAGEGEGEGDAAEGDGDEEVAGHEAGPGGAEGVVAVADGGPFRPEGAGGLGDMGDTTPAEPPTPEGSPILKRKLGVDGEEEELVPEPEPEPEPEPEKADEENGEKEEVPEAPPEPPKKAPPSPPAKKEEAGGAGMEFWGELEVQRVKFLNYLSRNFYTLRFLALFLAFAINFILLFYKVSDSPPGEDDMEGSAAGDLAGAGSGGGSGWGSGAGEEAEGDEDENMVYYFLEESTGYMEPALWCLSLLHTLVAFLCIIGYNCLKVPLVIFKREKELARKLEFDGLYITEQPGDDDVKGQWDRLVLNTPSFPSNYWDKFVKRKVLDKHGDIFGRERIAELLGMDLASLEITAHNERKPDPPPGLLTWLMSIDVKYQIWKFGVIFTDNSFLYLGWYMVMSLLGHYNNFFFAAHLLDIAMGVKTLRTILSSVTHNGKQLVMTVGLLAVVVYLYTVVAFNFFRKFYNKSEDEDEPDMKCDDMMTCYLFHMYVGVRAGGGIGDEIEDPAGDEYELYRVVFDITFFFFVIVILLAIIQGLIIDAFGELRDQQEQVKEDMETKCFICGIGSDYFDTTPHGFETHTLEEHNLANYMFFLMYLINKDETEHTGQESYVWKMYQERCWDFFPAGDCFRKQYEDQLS
Sequence of rabbit skeletal muscle ryanodine receptor Ca^2+ release channel (RyR1) (P11716 whole entry): as above

O=C1Nc2ccc(Cl)cc2[C@@](C#CC2CC2)(C(F)(F)F)O1 [EFV, efavirenz]
effect on ATPase activity of SERCA1 (SERCA1 [1]; 0 – 20 μM, 20 min at 37°C, with and without A23187): did not show any significant effect
time after which the channel went into an irreversible shut state (RyR1; 31.2 nM cis EFV (so in the source)): 90 s
increase in Po of RyR1 (RyR1; 240 nM cis EFV, within 15 sec): eight-fold
conductance of reduced conductance state R1 (RyR1; 2.5 μM cis EFV): 233 ± 15 pS
reduced conductance state R1, current amplitude (RyR1; 2.5 μM cis EFV): 33 % of maximum
duration of R1 state (RyR1; 2.5 μM cis EFV, +30 mV): ~ 375 msec
duration of R1 state (RyR1; 2.5 μM cis EFV, −30 mV): ~ 125 msec
conductance of reduced conductance state R2 (RyR1; 5.0 μM cis EFV): 479 ± 24 pS
Closed- maximally opened transitions (Hz) (RyR1; Efavirenz 2.50 μM cis): 1122 ±22 Hz
Dwell time closed state (RyR1; Efavirenz 2.50 μM cis): 1.38 ± 0.08
Dwell time open state (RyR1; Efavirenz 2.50 μM cis): 0.74 ± 0.06
Po (+30 mV) (RyR1; Efavirenz 2.50 μM cis): 0.22 ± 0.01
Closed- maximally opened transitions (Hz) (RyR1; Efavirenz 5.00 μM cis): 1046 ±30 Hz
Dwell time closed state (RyR1; Efavirenz 5.00 μM cis): 0.56 ± 0.07
Dwell time open state (RyR1; Efavirenz 5.00 μM cis): 1.01 ± 0.01
Po (+30 mV) (RyR1; Efavirenz 5.00 μM cis): 0.59 ± 0.03
Closed- maximally opened transitions (Hz) (RyR1; Efavirenz 12.50 μM cis): 1005 ±16 Hz
Dwell time closed state (RyR1; Efavirenz 12.50 μM cis): 0.53 ± 0.46
Dwell time open state (RyR1; Efavirenz 12.50 μM cis): 1.03 ± 0.05
Po (+30 mV) (RyR1; Efavirenz 12.50 μM cis): 0.69 ± 0.04
Closed- maximally opened transitions (Hz) (RyR1; Efavirenz 20.00 μM cis): 1060 ±25 Hz
Dwell time closed state (RyR1; Efavirenz 20.00 μM cis): 0.57 ± 0.06
Dwell time open state (RyR1; Efavirenz 20.00 μM cis): 0.99 ± 0.04
Po (+30 mV) (RyR1; Efavirenz 20.00 μM cis): 0.67 ± 0.04
Closed- maximally opened transitions (Hz) (RyR1; Efavirenz 31.20 μM cis): 1064 ±25 Hz
Dwell time closed state (RyR1; Efavirenz 31.20 μM cis): 1.53 ± 0.02
Dwell time open state (RyR1; Efavirenz 31.20 μM cis): 0.73 ± 0.06
Po (+30 mV) (RyR1; Efavirenz 31.20 μM cis): 0.38 ± 0.01
Closed- maximally opened transitions (Hz) (RyR1; Efavirenz […] cis): 1125 ±24 Hz
Dwell time closed state (RyR1; Efavirenz […] cis): 4.91 ± 0.43
Dwell time open state (RyR1; Efavirenz […] cis): 0.61 ± 0.07
Po (+30 mV) (RyR1; Efavirenz […] cis): 0.08 ± 0.01
effect on Po of RyR1 of concentrations lower than 240 nM (RyR1; up to 5 minutes after cis addition): no effect
Ca^2+ transient in C2C12 cells pretreated with 50 μM ryanodine for 20 min [2]: attenuated Ca^2+ transient
duration of the global Ca^2+ transient ([2]; 6 μM): about 90 sec
effect on plasma membrane of C2C12 cells ([2]; 6 μM): blebbing
mean peak amplitude of the Ca^2+ transient [2, 7]: 3.9 ± 0.3 f.u.
rate of Ca^2+ rise [2, 7]: 0.14 ± 0.01 f.u./sec
rate of Ca^2+ transient decay [2, 7]: 0.04 ± 0.00 f.u./sec
response to a second dose in previously exposed C2C12 cells ([2]; second dose 6 μM): did not elicit a second Ca^2+ transient
effect on ATP-dependent Ca^2+ transport by SERCA1 (SERCA1 [3]): no effect
plasma Cmax [4]: ~ 2.5 μg/ml
Cmax ([4]; read-out: plasma Cmax): ~8 µM
fraction dissolved in ethanol/water (1:1) [5]: 6.3%
stock concentration in ethanol/water (1:1) [5]: 1.8 mM
Hill slope of displacement curve [6]: 1.6
concentrations that enhanced [^3H]ryanodine binding to RyR1 ([6]; 2 hr at 37°C): 1 to 10 nM

CC(C)c1nc(CN(C)C(=O)N[C@H](C(=O)N[C@@H](Cc2ccccc2)C[C@H](O)[C@H](Cc2ccccc2)NC(=O)OCc2cncs2)C(C)C)cs1 [RTV, ritonavir]
effect on ATPase activity of SERCA1 (SERCA1 [1]; 0.25 to 20 μM, presence or absence of A23187): dose-dependently decreased
increase in Po of RyR1 (RyR1; 720 nM cis RTV): three-fold
Po of RyR1 (RyR1; 3.2 μM cis RTV): 0.15 ± 0.02
conductance of reduced conductance state R’2 (RyR1; 3.2 μM cis RTV): 599 ± 24 pS
current amplitude of RyR1 (R’2) (RyR1; 3.2 μM cis RTV): 84 % of maximum
reduction of current amplitude of RyR1 (RyR1; 3.2 μM cis RTV): 16%
current amplitude of RyR1 (R’2) (RyR1; 31.2 μM cis RTV): 84 % of maximum
Po of RyR1 (RyR1; 31.2 μM cis RTV, +30 mV): 0.92 ± 0.01
Close - maximally opened transitions (Hz) (RyR1; Ritonavir 2.50 μM cis): 998 ± 89 Hz
Dwell time closed state (RyR1; Ritonavir 2.50 μM cis): 1.01 ± 0.22 ms
Dwell time open state (RyR1; Ritonavir 2.50 μM cis): 0.68 ± 0.06 ms
Po (+30 mV) (RyR1; Ritonavir 2.50 μM cis): 0.29 ± 0.03
Close - maximally opened transitions (Hz) (RyR1; Ritonavir 5.00 μM cis): 762 ± 45 Hz
Dwell time open state (RyR1; Ritonavir 5.00 μM cis): 1.22 ± 0.15 ms
Po (+30 mV) (RyR1; Ritonavir 5.00 μM cis): 0.07 ± 0.04
Close - maximally opened transitions (Hz) (RyR1; Ritonavir 12.50 μM cis): 828 ± 40 Hz
Dwell time open state (RyR1; Ritonavir 12.50 μM cis): 1.64 ± 0.03 ms
Po (+30 mV) (RyR1; Ritonavir 12.50 μM cis): 0.11 ± 0.03
Close - maximally opened transitions (Hz) (RyR1; Ritonavir 20.00 μM cis): 848 ± 37 Hz
Dwell time closed state (RyR1; Ritonavir 20.00 μM cis): 10.57 ± 1.24 ms
Dwell time open state (RyR1; Ritonavir 20.00 μM cis): 1.01 ± 0.06 ms
Po (+30 mV) (RyR1; Ritonavir 20.00 μM cis): 0.11 ± 0.02
Close - maximally opened transitions (Hz) (RyR1; Ritonavir 31.20 μM cis): 880 ± 30 Hz
Dwell time closed state (RyR1; Ritonavir 31.20 μM cis): 0.72 ± 0.09 ms
Dwell time open state (RyR1; Ritonavir 31.20 μM cis): 1.13 ± 0.09 ms
Po (+30 mV) (RyR1; Ritonavir 31.20 μM cis): 0.92 ± 0.01
Close - maximally opened transitions (Hz) (RyR1; Ritonavir […] cis): 773 ± 47 Hz
Dwell time closed state (RyR1; Ritonavir […] cis): 4.25 ± 0.11 ms
Dwell time open state (RyR1; Ritonavir […] cis): 0.35 ± 0.02 ms
Po (+30 mV) (RyR1; Ritonavir […] cis): 0.07 ± 0.01
effect on Po of RyR1 of concentrations lower than 720 nM (RyR1; up to five minutes after addition): did not elicit changes in the Po
Ca^2+ transient in C2C12 cells pretreated with 50 μM ryanodine for 20 min [2]: attenuated the amplitude
duration of the Ca^2+ transient ([2]; 3 μM): about 20 sec
effect on plasma membrane of C2C12 cells ([2]; 3 μM): blebbing
rate of decay of the Ca^2+ transient, times faster than that of EFV ([2]; 3 μM): 3 x
mean rate of Ca^2+ rise [2, 8]: 0.54 ± 0.06 f.u./sec
peak amplitude of the Ca^2+ transient [2, 8]: 4.3 ± 0.2 f.u
response to a second dose in previously exposed C2C12 cells ([2]; second dose 3 μM): triggered a second Ca^2+ transient
effect on ATP-dependent Ca^2+ transport by SERCA1 (SERCA1 [3]): dose-dependently inhibited
fraction dissolved in ethanol/water (1:1) [5]: 1.5%
stock concentration in ethanol/water (1:1) [5]: 0.39 mM
maximum percent enhancement of [^3H]ryanodine binding over control ([6]; 6.7 nM [^3H]ryanodine, 2 hr at 37°C): 62.3 ± 6.2%
concentrations that enhanced [^3H]ryanodine binding to RyR1 ([6]; 2 hr at 37°C): 1 to 60 nM
